From US20210236523A1, “P[…] FOR HEADACHE DISORDERS” (priority 2020, published 2021)

Assays:
[1] = test system: patients with migraine headache; test: Migraine study: acute physiologic and psychotropic effects and adverse events of drug administration; assay type: in vivo, human
Method: (§1) Blood pressure, heart rate, and peripheral oxygenation were measured at baseline and throughout experimental sessions. Acute headache pain and associated symptoms (if present) and drug effects (overall, anxiety/fear, sleepiness/sedation, nausea, joy/intense happiness, peace/harmony) were self-reported on a 0-3 scale (0=none, 1=minimal, 2=moderate, 3=definite) at baseline and throughout experimental sessions. Psychedelic effects were self-reported at the end of experimental sessions using the validated 5-Dimensional Altered States of Consciousness (5D-ASC) scale. Subjects were discharged from the NSU at 6 hours after capsule ingestion or once physiological and psychological drug effects had resolved. Only one subject remained in the NSU for an additional 60 minutes until drug effects resolved. Subjects were not allowed to drive themselves after experimental sessions. Emergency contacts, including 24-hour/7-day psychiatry services, were provided to all subjects.
Telephone follow-up was performed the day after and weekly for two weeks after each experimental session, and at 2 and 3 months after the second experimental session.
Statistical analyses were performed using SAS, version 9.4 (SAS Institute Inc., Cary, N.C.) and figures were produced with GraphPad Prism (GraphPad Software Inc., La Jolla, Calif.). All statistical tests were two-sided with an overall pre-hypothesis alpha threshold of 0.05. Measures of error are shown as standard error about the mean (SEM). The primary clinical outcome measure was change in weekly migraine days (WMD) from baseline. This and the secondary measures of migraine burden—changes from baseline in weekly migraine attacks (WMA), pain severity, light sensitivity severity, sound sensitivity severity, nausea/vomiting severity, attack-related functional impairment, and weekly migraine abortive use—were calculated and compared via paired t-test. The time to the next two migraine attacks were also compared between placebo and psilocybin via paired t test. Acute effects of drug administration on mean arterial pressure (MAP), heart rate, peripheral oxygenation, and general drug effects were analyzed via 2-way repeated measures ANOVA with post-hoc Fisher least significant difference (LSD) test (when the interaction existed). Psychotropic effects as measured by the 5D-ASC scale were calculated as a percent of the total possible score 21, 22, as well as the percent possible score of each of the scale's five dimensions—oceanic boundlessness (OBN), dread of ego dissolution (DED), visionary restructuralization (VRS), acoustic alterations (AUA), and vigilance reduction (VIR). Percent possible scores were then compared between placebo and psilocybin via paired t-test. In order to test the assumption that psychotropic effects are unrelated to effects on migraine activity, the maximum rating of general drug effects and the percent total possible 5D-ASC scale score were correlated to the percent change in WMD after psilocybin administration. The number of adverse events (AEs) were compared between placebo and psilocybin using inference on proportions.

[2] = test system: patients with cluster headache; test: Cluster headache study: tolerability and adverse events; assay type: in vivo, human
Method: as §1, with “Sessions were conducted in the Neurobiological Studies Unit (NSU) at VACHS. Subjects reported to the NSU at 08:00; urine drug, urine pregnancy (when applicable), and alcohol breathalyzer tests were required to be negative in order to proceed. After a standard light breakfast, an intravenous line was placed and baseline measures were collected. Subjects typically received the drug capsule between 08:30 and 09:30. Blood” for “Blood”, “Drug” for “Acute headache pain and associated symptoms (if present) and drug”, “resolved.” for “resolved. Only one subject remained in the NSU for an additional 60 minutes until drug effects resolved.”
Telephone follow-up was performed the day after each experimental session and weekly for two weeks and at 2, 3, and 6 months after the last experimental session.

With `CN(C)CCc1c[nH]c2cccc(OP(=O)(O)O)c12` [psilocybin, 3-(2-dimethylaminoethyl)-1H-indol-4-yl] dihydrogen phosphate] the “maximum increase in mean arterial pressure (MAP) over placebo” value ([1]; at 1.5 hours after capsule ingestion, 0.143 mg/kg oral, mean (SEM)) was 12.2 (4.7) mmHg, the “tingling/paresthesia, cold/shivering, dry mouth, and acute migraine reported” value ([1]; during experimental session, 0.143 mg/kg oral) was “one subject each” and the “lightheadedness and generalized tension/sore muscles, numbers vs placebo” value ([1]; during experimental sessions) was “not significant”. The “drug x time interaction on heart rate or peripheral oxygenation” value ([1]; during experimental sessions, 0.143 mg/kg oral) was “no significant interactions”, the “5D-ASC scale, percent possible score for the total scale score” value ([1]; end of experimental test day, 0.143 mg/kg oral, mean (SEM), P=0.0263 vs placebo) was 19.35% and the “tension/sore muscles, general headache attack, and migraine attack vs placebo” value ([1]; in the 24 hours following the start of experimental sessions) was “no significant differences”. For the same compound, the “serious or unexpected adverse events” value ([1]; migraine study, single oral dose 0.143 mg/kg) was “no serious or unexpected AEs”, the “MAP vs placebo (post-hoc Fisher LSD)” value ([1]; starting at 45 minutes until 4 hours after capsule ingestion, 0.143 mg/kg oral) was “significant increase” and the “serious or unexpected adverse events” value ([2]; cluster headache study, 3-dose pulse 0.143 mg/kg) was “no serious or unexpected adverse events”. The “lasting physical or psychological changes” value ([2]; follow-up in the 6 months after study participation) was “no lasting physical or psychological changes” and the “most commonly reported adverse events during acute exposure” value ([2]; self-limiting) was “nausea and anxiety”.
